Test results published in the supplement of paper PMC10331698.
± gives the standard deviation of the averaged measurements.

How the values were obtained:
Test in all cases: level (log10 ratio to DMSO vehicle control); higher = higher biomarker level / cell amount than vehicle control
[1] = compound: OCC(F)(F)C(F)(F)C(F)(F)C(F)(F)C(F)(F)C(F)(F)C(F)(F)C(F)(F)C(F)(F)C(F)(F)C(F)(F)F [11:1 Fluorotelomer alcohol]; conditions: in DMSO
Procedure: (§1)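 BioMAP Diversity Plus panel of 12 human primary cell co-culture systems (3C, 4H, LPS, SAg, BT, BF4T, BE3C, CASM3C, HDF3CGF, KF3CT, MyoF, Mphg). Compounds were added 1 h before stimulation and left for 24 h (MyoF 48 h; BT 72 h for soluble read-outs or 6 d for IgG). Biomarkers were read by ELISA, cytotoxicity by SRB, PBMC viability and proliferation by Alamar Blue. Each well value was divided by the mean of 8 DMSO control wells on the same plate and log10 transformed; duplicate blinded samples were tested at 4 concentrations.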

[2] = compound: O=S(=O)(OCC(F)(F)F)C(F)(F)C(F)(F)C(F)(F)C(F)(F)F [2,2,2-Trifluoroethyl perfluorobutanesulfonate]; conditions: in DMSO
Procedure: as §1

[3] = compound: OCCCC(F)(F)C(F)(F)C(F)(F)C(F)(F)C(F)(F)C(F)(F)C(F)(F)C(F)(F)F [3-(Perfluorooctyl)propanol]; conditions: 6700 nM; in DMSO
Procedure: as §1

Methotrexate = compound: CN(Cc1cnc2nc(N)nc(N)c2n1)c1ccc(C(=O)N[C@@H](CCC(=O)O)C(=O)O)cc1 [Methotrexate]; conditions: in DMSO
Procedure: as §1

[4] = compound: O=P(O)(O)CCC(F)(F)C(F)(F)C(F)(F)C(F)(F)C(F)(F)C(F)(F)F [2-(Perfluorohexyl)ethylphosphonic acid]; conditions: in DMSO
Procedure: as §1

[5] = compound: OCCCCC(F)(F)C(F)(F)C(F)(F)C(F)(F)F [4:4 Fluorotelomer alcohol]; conditions: in DMSO
Procedure: as §1

Perfluorooctanoic acid = compound: O=C(O)C(F)(F)C(F)(F)C(F)(F)C(F)(F)C(F)(F)C(F)(F)C(F)(F)F [Perfluorooctanoic acid]; conditions: in DMSO
Procedure: as §1

Test System | level (log10) ([1]; 1100 nM) | level (log10) ([1]; 3300 nM) | level (log10) ([1]; 10000 nM) | level (log10) ([2]; 6700 nM) | level (log10) ([2]; 20000 nM) | level (log10) ([2]; 60000 nM) | level (log10) [3] | level (log10) (Methotrexate; 1500 nM) | level (log10) (Methotrexate; 4400 nM) | level (log10) (Methotrexate; 13000 nM) | level (log10) (Methotrexate; 40000 nM) | level (log10) ([4]; 6700 nM) | level (log10) ([4]; 20000 nM) | level (log10) ([4]; 60000 nM) | level (log10) ([5]; 6700 nM) | level (log10) ([5]; 20000 nM) | level (log10) ([5]; 60000 nM) | level (log10) (Perfluorooctanoic acid; 6700 nM) | level (log10) (Perfluorooctanoic acid; 20000 nM) | level (log10) (Perfluorooctanoic acid; 60000 nM)
4H:CCL26/Eotaxin-3 | 0.0025 ± 0.0035 | -0.0055 ± 0.0092 | -0.0085 ± 0.0078 | 0.0025 ± 0.064 | 0.01 ± 0.054 | -0.0095 ± 0.074 | -0.009 ± 0.0042 | -0.018 ± 0.0085 | -0.008 ± 0.011 | 0.014 ± 0.021 | -0.002 ± 0.014 | -0.052 ± 0.09 | -0.0765 ± 0.066 | 0 ± 0.018 | -0.017 ± 0.021 | -0.0345 ± 0.0021 | -0.025 ± 0.011 | 0.0215 ± 0.087 | -0.022 ± 0.12 | -0.0255 ± 0.14
LPS:M-CSF | -0.009 ± 0.018 | -0.054 ± 0.047 | -0.0825 ± 0.066 | -0.01 ± 0.016 | -0.046 ± 0.02 | -0.09 ± 0.0085 | -0.073 ± 0.03 | 0.0235 ± 0.005 | 0.0035 ± 0.019 | 0.0235 ± 0.0035 | -0.0065 ± 0.03 | -0.0175 ± 0.074 | 0.0055 ± 0.043 | 0.0255 ± 0.019 | 0.0085 ± 0.0078 | -0.001 ± 0.017 | 0.018 ± 0.0085 | 0.0255 ± 0.054 | -0.016 ± 0.1 | 0.06 ± 0.078
3C:CD87/uPAR | -0.024 ± 0.023 | -0.013 ± 0.024 | -0.003 ± 0.011 | 0.0115 ± 0.023 | -0.014 ± 0.035 | -0.139 ± 0.099 | -0.03 ± 0.04 | 0.0005 ± 0.0092 | 0.001 ± 0.047 | 0.01 ± 0.071 | -0.0095 ± 0.013 | 0.0365 ± 0.03 | 0.0125 ± 0.00071 | -0.0385 ± 0.0092 | -0.018 ± 0.057 | -0.0155 ± 0.005 | 0.012 ± 0.0014 | -0.0005 ± 0.0021 | -0.0035 ± 0.005 | -0.0425 ± 0.0021
BF4T:uPA | 0 | -0.005 ± 0.0071 | 0.0015 ± 0.0064 | -0.0085 ± 0.018 | -0.008 ± 0.035 | -0.015 ± 0.023 | 0.006 ± 0.0085 | 0.013 ± 0.0085 | 0.0115 ± 0.0078 | 0.005 ± 0.03 | 0.009 ± 0.028 | -0.0445 ± 0.037 | -0.0475 ± 0.028 | -0.0465 ± 0.013 | -0.0125 ± 0.0078 | -0.015 ± 0.0028 | 0.0105 ± 0.04 | -0.0245 ± 0.023 | -0.0315 ± 0.016 | -0.0185 ± 0.013
4H:VEGFR2 | -0.027 ± 0.023 | -0.0135 ± 0.033 | -0.008 ± 0.048 | -0.0285 ± 0.03 | 0.0005 ± 0.019 | 0.025 ± 0.0014 | -0.013 ± 0.0085 | -0.0035 ± 0.04 | -0.028 ± 0.035 | -0.014 ± 0.017 | 0.022 ± 0.0057 | 0.0465 ± 0.015 | 0.0335 ± 0.0035 | -0.002 ± 0.027 | -0.0535 ± 0.036 | -0.0665 ± 0.005 | -0.0205 ± 0.047 | 0.019 ± 0.0099 | 0.0055 ± 0.042 | 0.0205 ± 0.033
SAg:CXCL8/IL-8 | 0.0365 ± 0.042 | -0.0005 ± 0.0035 | -0.121 ± 0.28 | 0.0205 ± 0.029 | 0.034 ± 0.024 | 0.134 ± 0.086 | -0.0165 ± 0.028 | 0.023 ± 0.037 | -0.0215 ± 0.022 | -0.004 ± 0.02 | 0.0195 ± 0.052 | -0.003 ± 0.038 | 0.015 ± 0.023 | 0.143 ± 0.0021 | 0.0075 ± 0.0021 | 0.002 ± 0.0057 | -0.0015 ± 0.025 | 0.015 ± 0.016 | 0.0165 ± 0.028 | 0.0745 ± 0.029
SAg:CD62E/E-Selectin | 0.045 ± 0.0057 | 0.0325 ± 0.018 | 0.0355 ± 0.035 | -0.0065 ± 0.015 | 0.006 ± 0.018 | 0.03 ± 0.013 | -0.014 ± 0.0099 | 0.007 ± 0.011 | -0.0015 ± 0.032 | 0.019 ± 0.016 | -0.0075 ± 0.018 | 0.004 ± 0.0042 | 0.0015 ± 0.0021 | 0.0635 ± 0.021 | -0.001 ± 0.0014 | -0.01 ± 0.0071 | -0.014 ± 0.028 | 0.009 ± 0.0057 | 0.015 ± 0.0085 | 0.086 ± 0.0014
BT:sIL-2 | 0.108 ± 0.058 | 0.0255 ± 0.083 | -0.02 ± 0.073 | 0.015 ± 0.0042 | 0.116 ± 0.068 | 0.102 ± 0.014 | -0.0245 ± 0.016 | 0.0155 ± 0.016 | -0.0845 ± 0.11 | 0.0085 ± 0.035 | -0.075 ± 0.035 | 0.076 ± 0.013 | 0.023 ± 0.0071 | 0.0355 ± 0.11 | -0.0015 ± 0.044 | -0.0135 ± 0.043 | -0.017 ± 0.092 | 0.0385 ± 0.11 | 0.039 ± 0.093 | 0.046 ± 0.12
LPS:sPGE2 | 0.151 ± 0.075 | 0.212 ± 0.0064 | 0.211 ± 0.044 | 0.049 ± 0.02 | -0.006 ± 0.038 | -0.024 ± 0.018 | -0.061 ± 0.061 | 0.011 ± 0.025 | -0.0045 ± 0.057 | -0.0135 ± 0.067 | -0.0235 ± 0.021 | -0.0245 ± 0.013 | -0.0005 ± 0.019 | 0.0035 ± 0.025 | 0.0035 ± 0.0092 | -0.015 ± 0.0099 | -0.015 ± 0.055 | 0.0065 ± 0.016 | -0.067 ± 0.02 | -0.159 ± 0.064
BT:sIL-6 | 0.209 ± 0.0092 | 0.116 ± 0.034 | 0.083 ± 0.085 | 0.089 ± 0.0085 | 0.158 ± 0.02 | 0.231 ± 0.033 | 0.0875 ± 0.052 | 0.0125 ± 0.013 | -0.034 ± 0.1 | -0.0095 ± 0.059 | -0.2 ± 0.033 | 0.0645 ± 0.013 | -0.007 ± 0.0042 | 0.0015 ± 0.025 | 0.036 ± 0.033 | -0.0255 ± 0.005 | -0.069 ± 0.09 | 0.024 ± 0.03 | -0.0095 ± 0.035 | 0.0025 ± 0.0078
BF4T:tPA | 0.0015 ± 0.0092 | -0.003 ± 0.0071 | 0.026 ± 0.024 | 0.0025 ± 0.0021 | 0.011 ± 0.023 | 0.015 ± 0.0028 | 0.056 ± 0.016 | 0.018 ± 0.0071 | -0.0155 ± 0.011 | 0.005 ± 0.014 | 0.0155 ± 0.018 | -0.059 ± 0.0014 | -0.067 ± 0.0057 | -0.0615 ± 0.064 | -0.0095 ± 0.011 | -0.01 | 0.0205 ± 0.036 | -0.065 ± 0.05 | -0.0715 ± 0.03 | -0.093 ± 0.031
LPS:CD106/VCAM-1 | -0.025 ± 0.0042 | -0.025 ± 0.02 | -0.015 ± 0.0028 | 0.0055 ± 0.052 | -0.0075 ± 0.015 | -0.076 ± 0.013 | -0.158 ± 0.17 | 0.0075 ± 0.03 | -0.0065 ± 0.011 | 0.0085 ± 0.00071 | -0.0145 ± 0.005 | -0.021 ± 0.021 | -0.0185 ± 0.0021 | -0.011 ± 0.023 | -0.001 ± 0.011 | 0.0045 ± 0.018 | 0.003 ± 0.02 | 0.0085 ± 0.0021 | -0.006 ± 0.013 | -0.0165 ± 0.0035
LPS:SRB | -0.029 ± 0.0099 | -0.0455 ± 0.0021 | -0.036 ± 0.0014 | 0.007 ± 0.0014 | -0.0035 ± 0.0092 | -0.004 ± 0.0071 | -0.033 ± 0.018 | -0.0005 ± 0.013 | 0.001 | 0.0015 ± 0.00071 | 0.005 ± 0.011 | -0.003 ± 0.0057 | -0.006 ± 0.0028 | -0.023 ± 0.021 | 0.02 ± 0.0057 | 0.022 ± 0.024 | 0.017 ± 0.033 | -0.01 ± 0.011 | 0.0085 ± 0.012 | -0.0265 ± 0.0064
BE3C:CD54/ICAM-1 | -0.0245 ± 0.00071 | -0.054 ± 0.0099 | -0.025 ± 0.0028 | -0.002 ± 0.0071 | -0.013 ± 0.0071 | -0.018 ± 0.0057 | 0.023 ± 0.0071 | 0.021 ± 0.014 | -0.002 ± 0.013 | 0.013 ± 0.031 | 0.0065 ± 0.035 | -0.01 ± 0.0028 | -0.02 ± 0.021 | -0.0085 ± 0.03 | 0.0085 ± 0.015 | -0.0025 ± 0.023 | -0.0045 ± 0.0064 | -0.02 ± 0.0085 | -0.0085 ± 0.0035 | 0.0235 ± 0.039
